From publication PMC13266999, “Designing Antibiotics with Inherent Resistance to Efflux as a Strategy to Revive Discovery against Multidrug-Resistant Pathogens” (Journal of Medicinal Chemistry, 2026)
Values after ≈ are worked out from the molar mass of the structure shown. Where two headings read alike, the source gives them in different places.

Assays:
[1] = reported values; cited from earlier work
E. coli = assay: MIC (microbroth dilution); assay type: cell-based; conditions: Escherichia coli
Description: (§1) All bacteria were maintained on tryptic soy agar (TSA), except Streptococcus spp., which were maintained on Columbia agar plates containing 5% horse blood. […] Bacteria were grown to stationary phase in liquid culture overnight, with shaking at 200 rpm, before being back diluted to the relevant starting concentration for each assay below. MICs were measured by the microbroth dilution method. […] Absorbance at OD600 was read on a CLARIOstar spectrophotometer (BMG Labtech) and the MIC was defined as the minimum concentration of compound where no visible growth was detected. […] MICs were also performed in the presence of the outer membrane permeator, polymyxin b nonapeptide (PMBN) following the same MIC method but with the following variation. The 2-fold dilution series of compound was prepared as above, then 50 μL of PMBN at a final concentration of 30 μg/mL was added to relevant wells, while 50 μL/well of blank media was added to the remaining wells. Bacteria were then added at 50 μL/well for a starting concentration as above. […] The MICs were read and defined as above. All animal procedures were performed by the contract research organization Pharmacology Discovery Services Taiwan in accordance with the Guide for the Care and Use of Laboratory Animals. The procedures were approved by the Institutional Ethics Committee of Pharmacology Discovery Services Taiwan, Ltd. (approval no. AB127662), in compliance with animal welfare legislation in Taiwan.

[2] = test system: NorA overexpressing strain NCTC 13616; assay: Reserpine growth (efflux inhibition) assay; conditions: 0.5x MIC with vs without reserpine
Description: Statistical analyses were performed with GraphPad Prism V9.5.0. […] Unpaired t tests were used when comparing two samples in the gyrase assays.

A. baumannii strain AYE = assay: Time-kill assay; assay type: cell-based; conditions: 4 × MIC
Description: Time-kill assays were performed as defined previously.

Acinetobacter baumannii = assay: MIC (microbroth dilution); assay type: cell-based
Description: All bacteria were maintained on tryptic soy agar (TSA), except Streptococcus spp., which were maintained on Columbia agar plates containing 5% horse blood. All bacterial assays were carried out in tryptic soy broth (TSB), except for Streptococcus spp. which were grown in cation-adjusted Mueller Hinton broth containing 2.5% lysed horse blood. Bacteria were grown to stationary phase in liquid culture overnight, with shaking at 200 rpm, before being back diluted to the relevant starting concentration for each assay below. MICs were measured by the microbroth dilution method. […] Absorbance at OD600 was read on a CLARIOstar spectrophotometer (BMG Labtech) and the MIC was defined as the minimum concentration of compound where no visible growth was detected. The compounds were prepared as a DMSO stock and equivalent concentrations of DMSO had no effect on bacterial growth. MICs were also performed in the presence of the outer membrane permeator, polymyxin b nonapeptide (PMBN) following the same MIC method but with the following variation. The 2-fold dilution series of compound was prepared as above, then 50 μL of PMBN at a final concentration of 30 μg/mL was added to relevant wells, while 50 μL/well of blank media was added to the remaining wells. Bacteria were then added at 50 μL/well for a starting concentration as above. Thirty μg/mL of PMBN had no effect on bacterial growth. The MICs were read and defined as above. All animal procedures were performed by the contract research organization Pharmacology Discovery Services Taiwan in accordance with the Guide for the Care and Use of Laboratory Animals. The procedures were approved by the Institutional Ethics Committee of Pharmacology Discovery Services Taiwan, Ltd. (approval no. AB127662), in compliance with animal welfare legislation in Taiwan.

S. aureus [3] = assay: MIC (microbroth dilution); assay type: cell-based, Staphylococcus aureus; conditions: for MIC: Staphylococcus aureus
Description: as §1

S. aureus [4] = assay: Serial passaging, MIC of adapted strains; assay type: cell-based; conditions: Staphylococcus aureus
Description: MICs were performed on the first and 10th passage.

K. pneumoniae = assay: MIC (microbroth dilution); assay type: cell-based, Klebsiella pneumoniae; conditions: Klebsiella pneumoniae, read-out: MIC
Description: as §1

For `Nc1nc(-n2cc(C(=O)O)c(=O)c3cc(F)c(N4CC(O)C4)c(Cl)c32)c(F)cc1F` [delafloxacin], the plasma protein binding [1] is listed as 84%.
In the case of `COc1c(N2CC[C@@H](Nc3ncccn3)C2)c(F)cc2c(=O)c(C(=O)O)cn(C3CC3)c12` [Compound 51, (R)-1-Cyclopropyl-6-fluoro-8-methoxy-4-oxo-7-(3-(pyrimidin-2-ylamino)pyrrolidin-1-yl)-1,4-dihydroquinoline-3-carboxylic acid], the MIC (E. coli; 319238/UR) is reported as 16 µg/mL (≈ 36.4 µM), the MIC (E. coli; LEC006) is reported as 0.25 µg/mL (≈ 0.569 µM) and the MIC (E. coli; LEC007) is reported as 0.125 µg/mL (≈ 0.284 µM). The MIC (E. coli; LEC077) was 4 µg/mL (≈ 9.1 µM), the MIC (E. coli; LEC081) was 2 µg/mL (≈ 4.55 µM) and the MIC (E. coli; NCTC10418, NCTC 10418) was 0.125 µg/mL (≈ 0.284 µM). The MIC (E. coli; NCTC11954, NCTC 11954) was 0.125 µg/mL (≈ 0.284 µM), the MIC (E. coli; NCTC12241, NCTC 12241) was 0.06 µg/mL (≈ 0.137 µM) and the MIC (E. coli; NCTC12923, NCTC 12923) was at most 0.125 µg/mL. The “efflux liability in reserpine assay” value [2] was “minimal shift”, the time-kill profile (A. baumannii strain AYE) was “rapid bactericidal activity” and the MIC (Acinetobacter baumannii; Acinetobacter baumannii, 86, oxa23) was 16 µg/mL (≈ 36.4 µM). For the same compound, the MIC (Acinetobacter baumannii; Acinetobacter baumannii, A601 colS) was at most 0.03 µg/mL, the MIC (Acinetobacter baumannii; Acinetobacter baumannii, ATCC17978, ATCC 17978, read-out: MIC) was at most 0.125 µg/mL and the MIC (Acinetobacter baumannii; Acinetobacter baumannii, BAA1709, BAA-1709, read-out: MIC) was 0.06 µg/mL (≈ 0.137 µM). It also gave an MIC (Acinetobacter baumannii; Acinetobacter baumannii, BAA1710, BAA-1710 (AYE), read-out: MIC) of 4 µg/mL (≈ 9.1 µM), an MIC (Acinetobacter baumannii; Acinetobacter baumannii, BAA2093, BAA-2093, read-out: MIC) of 0.03 to 0.06 µg/mL (≈ 0.0683 to 0.137 µM) and an MIC (Acinetobacter baumannii; Acinetobacter baumannii, NCTC10303, NCTC 10303, read-out: MIC) of 0.06 µg/mL (≈ 0.137 µM). For the same compound, the MIC (Acinetobacter baumannii; Acinetobacter baumannii, NCTC12156, NCTC 12156, read-out: MIC) was 0.125 µg/mL (≈ 0.284 µM), the MIC (Acinetobacter baumannii; Acinetobacter baumannii, NCTC13302, NCTC 13302, oxa24, read-out: MIC) was 4 µg/mL (≈ 9.1 µM) and the MIC (Acinetobacter baumannii; Acinetobacter baumannii, NCTC13424, NCTC 13424, oxa23, read-out: MIC) was over 32 µg/mL. The MIC (Acinetobacter baumannii; Acinetobacter baumannii, T strain) was 8 µg/mL (≈ 18.2 µM), the MIC (Acinetobacter baumannii; Acinetobacter baumannii, UKA1, oxa23, read-out: MIC) was 2 µg/mL (≈ 4.55 µM) and the MIC (Acinetobacter baumannii; Acinetobacter baumannii, UKA2, Low resistance, read-out: MIC) was 4 µg/mL (≈ 9.1 µM). The MIC (Acinetobacter baumannii; Acinetobacter baumannii, UKA9, read-out: MIC) was 0.06 µg/mL (≈ 0.137 µM), the MIC (Acinetobacter baumannii; Acinetobacter baumannii, UKA12, oxa23, read-out: MIC) was 2 µg/mL (≈ 4.55 µM) and the MIC (Acinetobacter baumannii; Acinetobacter baumannii, UKA13, oxa23, read-out: MIC) was 2 µg/mL (≈ 4.55 µM). The MIC (Acinetobacter baumannii; Acinetobacter baumannii, UKA15, oxa23, read-out: MIC) was 2 µg/mL (≈ 4.55 µM), the MIC (Acinetobacter baumannii; Acinetobacter baumannii, UKA19, read-out: MIC) was 0.25 µg/mL (≈ 0.569 µM) and the MIC (Acinetobacter baumannii; Acinetobacter baumannii, W1, read-out: MIC) was 4 µg/mL (≈ 9.1 µM). The “fold more active than moxifloxacin” value (S. aureus [3]) was 4–8 fold, the MIC (S. aureus [3]; ATCC9144, ATCC 9144, read-out: MIC) was at most 0.03 µg/mL and the MIC (S. aureus [3]; NCTC13277, NCTC 13277, read-out: MIC) was 0.125 to 0.25 µg/mL (≈ 0.284 to 0.569 µM). It also gave an MIC (S. aureus [3]; NCTC13616, NCTC 13616, read-out: MIC) of 0.125 µg/mL (≈ 0.284 µM), an MIC (S. aureus [3]; SA-1199, read-out: MIC) of 0.004 µg/mL (≈ 0.0091 µM) and an MIC (S. aureus [3]; SA-1199B (NorA-overexpressing)) of 0.004 µg/mL (≈ 0.0091 µM). The MIC (S. aureus [4]; 1199B WT) was 0.008 µg/mL, the MIC (S. aureus [4]; 1199B adapted to 4 x MIC of Compound 7) was 0.008 µg/mL and the MIC (S. aureus [4]; 1199B adapted to 4 x MIC of Compound 46) was 0.03 µg/mL. The MIC (S. aureus [4]; 1199B adapted to 4 x MIC of Compound 50) was 0.125 µg/mL, the MIC (S. aureus [4]; 1199B adapted to 4 x MIC of Compound 51) was 0.015 µg/mL and the MIC (S. aureus [4]; 1199 WT) was 0.004 µg/mL. The MIC (S. aureus [4]; 1199 adapted to 4 x MIC of Compound 7) was at most 0.008 µg/mL, the MIC (S. aureus [4]; 1199 adapted to 4 x MIC of Compound 46) was at most 0.008 µg/mL and the MIC (S. aureus [4]; 1199 adapted to 4 x MIC of Compound 50) was 0.06 µg/mL. For the same compound, the MIC (S. aureus [4]; 1199 adapted to 4 x MIC of Compound 51) was 0.015 µg/mL, the MIC (S. aureus [4]; NCTC13616, NCTC 13616 WT) was 0.125 µg/mL and the MIC (S. aureus [4]; NCTC13616, NCTC 13616 adapted to 4 x MIC of Compound 7) was 0.25 µg/mL. The MIC (S. aureus [4]; NCTC13616, NCTC 13616 adapted to 4 x MIC of Compound 46) was 0.125 µg/mL, the MIC (S. aureus [4]; NCTC13616, NCTC 13616 adapted to 4 x MIC of Compound 50) was 0.25 µg/mL and the MIC (S. aureus [4]; NCTC13616, NCTC 13616 adapted to 4 x MIC of Compound 51) was 0.5 µg/mL. It also gave an MIC (K. pneumoniae; M6) of 1 to 2 µg/mL (≈ 2.28 to 4.55 µM), an MIC (K. pneumoniae; NCTC13368, NCTC 13368) of 4 µg/mL (≈ 9.1 µM) and an MIC (K. pneumoniae; TW3) of 0.5 µg/mL (≈ 1.14 µM).
